Tested on: Staphylococcus aureus biofilm
Test: Monospecies S. aureus biofilm model, light exposure after ICG incubation, CFU counting
Type: cell-based
Conditions: for reduction in bacterial counts: three-day maturated biofilm
Experimental: Monospecies S. Aureus biofilm model experiments were performed to study the effect of single, or recurring application of dual-light aPDT or its parts during the biofilm formation process. Flat-bottom Nunclon Delta well plates (Thermo Fisher Scientific Inc, US), were used, and the biofilm experiments were divided into different setups based on maturation age and the therapy given.
Applications of both single- and dual-light therapies were scheduled to mimic the daily use of antibacterial light therapy. The total amount of […] as kept unchanged in different treatment protocols, and the concentration of the ICG photosensitizer (if given) were identical. In the first setting, S. aureus biofilm was incubated for either one day or three days, and a single dose of light with ICG was applied at the end of the growth period. In the second setting, the biofilm was incubated for either three days or six days, and a daily dose of light ICG with was applied during incubation. In each setting, the last treatment was followed by plating onto brain heart infusion (BHI)-agar dishes for colony-forming unit (CFU) counting.
Staphylococcus Aureus bacteria were grown for 18 h in an incubator (NuAire DH autoflow 5500, NuAire inc, US), at +36 degrees C, 5% CO2 in BHI broth (Bio-Rad 3564014, Bio-Rad Laboratories, Inc, US). The resulting bacterial suspension was diluted with a 0.9% NaCl solution until an optical density (OD) of 0.46 was reached. The optical density was measured by a spectrophotometer (Varian Cary 100 Bio UV-VIS, Agilent Technologies, Inc, US), and then with a Den 1 McFarland Densitometer (Biosan, Riga, Latvia).
Biofilms were grown in flat-bottom 96-well plates (Thermo Fisher Scientific Inc, US) by placing 100 μl of 0.46 OD S. aureus suspension in each well, with 100 μl of BHI-broth growth medium. The well plates were then incubated in a growth chamber (36° C., 5% CO^2). The BHI-broth medium was changed daily to supply fresh growth medium and to wash away the debris. The change of the medium in each well was performed by removing 100 μl of the medium and replacing it with a similar amount of fresh BHI broth.
Before the light exposure took place, the growth medium was meticulously removed by pipetting and subsequently replaced with an equal amount of indocyanine green solution (Verdye, Diagnostic Green, GmBH), tittered to a concentration of 250 μg/ml. The indocyanine green was left to incubate at room temperature and in the dark for 10 minutes. After this incubation period, the biofilm was washed with a 0.9% NaCl solution. Then, the 0.9% solution of NaCl was added to each well to reach a total volume of 200 μl.
Light exposure was performed using specific, custom-made LED light sources (Lumichip Oy, Espoo, Finland). The exposure time was calculated from the determined light amount and known irradiances, which had been previously measured with a light energy meter (Thorlabs PM 100D with S121C sensor head, Thorlabs Inc, US) and a spectroradiometer (BTS256, Gigahertz-Optik GmbH, Germany), respectively. After the exposure, the BHI broth was changed and the plates were placed in the incubator, or, if the light exposure was final, the biofilm was scraped for CFU counting, as described below. Excitation lights were applied with two single-wave LED light sources with peak intensities at 810 nm or at 405 nm, and with a dual-wave LED light chip simultaneously producing two separate peak intensities at 405 nm and at 810 nm.
Antibacterial photodynamic therapy light exposure was administered at an 810-nm peak wavelength LED array on top of the well plate. The resulting light irradiance was 100 mW/cm^2, and the provided light energy was 100 J/cm^2. Antibacterial blue light was administered at a 405-nm peak wavelength LED array, with a resulting irradiance of 80 mW/cm^2, and resulting light energy of 100 J/cm^2. […]

CC1(C)C(/C=C/C=C/C=C/C=C2\N(CCCCS(=O)(=O)O)c3ccc4ccccc4c3C2(C)C)=[N+](CCCCS(=O)(=O)[O-])c2ccc3ccccc3c21 [ICG, indocyanine green]
antibacterial effectivity by dual-light relative energy ratio (1/4 NIR (810 nm) to 3/4 aBL (405 nm) compared with 1/1 and 3/4 NIR to 1/4 aBL, largest difference in 6-day daily treated biofilm): most effective | antibacterial efficacy of simultaneous ICG/810-nm aPDT and 405-nm aBL versus single-light aPDT or aBL (S. aureus biofilm, overall conclusion): significantly improved antibacterial efficacy | antibacterial efficiency of dual-light aPDT versus single light (CFU count) (one-day biofilm, single dose, ICG 250 μg/ml, 405 nm + 810 nm simultaneously, total 100 J/cm^2): significantly more efficient than single-light aBL or aPDT | antibacterial effect (CFU count) (one-day biofilm, single light dose, ICG 250 μg/ml, all modalities (single-light aPDT 810 nm, dual-light aPDT)): bactericidal | reduction in bacterial counts (single exposure of aPDT (ICG 250 μg/ml, 810 nm, 100 J/cm^2)): four | reduction in bacterial counts (single exposure of dual-light aPDT (ICG 250 μg/ml, 405 nm + 810 nm)): four

Reference: US20260131003A1, “Method and kit for treating skin infections” (Koite Health Oy, priority 2020, published 2026)
